Measured values published in patent US20120202856A1, “SUBSTITUTED BENZIMDAZOLE DERIVATIVES USEFUL AS TRPM8 RECEPTOR MODULATORS” (priority 2011, published 2012).
Values joined by “and” are separate entries in the source; they are usually repeats but may differ in a detail not shown here. Equal values may be shown once. Where a name gives a salt, the structure may show the parent alone. Read-outs that look alike come from different tables or passages of the source.

How the values were obtained:
[1] = molecular target: T1, canine TRPM8 (Canis lupus familiaris, UniProt Q1A7N1); test: In Vitro Canine TRPM8 Functional Assay (intracellular Ca2+ fluorescence, icilin activation, HEK293 cells); type: cell-based; conditions: for IC50: HEK293 cells expressing canine TRPM8, icilin activation, individually measured values (batches/salt forms), read-out: IC50 (nM), in vitro TRP M8 Activity; for % Inh (%) @0.2 μM, in vitro TRP M8 Activity: 0.2 μM test compound; for % Inh (%) @0.2 μM, in vitro TRP M8 Activity / inhibition at 0.2 µM: individually measured values
T1 construct: expressed in transfected cells
Outline: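 HEK293 cells expressing canine TRPM8 loaded with Calcium 3 dye, then stimulated with icilin; intracellular Ca2+ rise read on FLIPR or FDSS. Peak fluorescence minus basal normalized to percent maximal response; IC50 from sigmoidal nonlinear regression of quadruplicate wells.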

[2] = system: icilin-induced “wet-dog” shakes (WDS); test: Inhibition of Icilin-Induced “Wet-Dog” Shakes in Rats; type: in vivo, Sprague Dawley rats; conditions: po; for inhibition in vivo at 10 mg/kg / inhibition in vivo at 3 mg/kg: read-out: Icilin % Inhibition @1.5 hrs
Protocol: The test compound was administered in 10% hydroxypropyl-β-cyclodextrin (HP-13-CD), p.o., 60 min before icilin.
% Inhibition=[1−(test compound WDS count/vehicle WDS count)]×100.

[3] = rat, p.o., dose 10 mg/kg, 1.5 hrs
[4] = HEK293, 0.2 μM test compound, read-out: % Inh (%) @0.2 μM, in vitro TRP M8 Activity
[5] = rat, p.o., dose 3 mg/kg, 1.5 hrs
[6] = HEK293, read-out: % Inh (%) @0.2 μM, in vitro TRP M8 Activity, 0.2 μM test compound

T1 sequence (Q1A7N1 1-1104): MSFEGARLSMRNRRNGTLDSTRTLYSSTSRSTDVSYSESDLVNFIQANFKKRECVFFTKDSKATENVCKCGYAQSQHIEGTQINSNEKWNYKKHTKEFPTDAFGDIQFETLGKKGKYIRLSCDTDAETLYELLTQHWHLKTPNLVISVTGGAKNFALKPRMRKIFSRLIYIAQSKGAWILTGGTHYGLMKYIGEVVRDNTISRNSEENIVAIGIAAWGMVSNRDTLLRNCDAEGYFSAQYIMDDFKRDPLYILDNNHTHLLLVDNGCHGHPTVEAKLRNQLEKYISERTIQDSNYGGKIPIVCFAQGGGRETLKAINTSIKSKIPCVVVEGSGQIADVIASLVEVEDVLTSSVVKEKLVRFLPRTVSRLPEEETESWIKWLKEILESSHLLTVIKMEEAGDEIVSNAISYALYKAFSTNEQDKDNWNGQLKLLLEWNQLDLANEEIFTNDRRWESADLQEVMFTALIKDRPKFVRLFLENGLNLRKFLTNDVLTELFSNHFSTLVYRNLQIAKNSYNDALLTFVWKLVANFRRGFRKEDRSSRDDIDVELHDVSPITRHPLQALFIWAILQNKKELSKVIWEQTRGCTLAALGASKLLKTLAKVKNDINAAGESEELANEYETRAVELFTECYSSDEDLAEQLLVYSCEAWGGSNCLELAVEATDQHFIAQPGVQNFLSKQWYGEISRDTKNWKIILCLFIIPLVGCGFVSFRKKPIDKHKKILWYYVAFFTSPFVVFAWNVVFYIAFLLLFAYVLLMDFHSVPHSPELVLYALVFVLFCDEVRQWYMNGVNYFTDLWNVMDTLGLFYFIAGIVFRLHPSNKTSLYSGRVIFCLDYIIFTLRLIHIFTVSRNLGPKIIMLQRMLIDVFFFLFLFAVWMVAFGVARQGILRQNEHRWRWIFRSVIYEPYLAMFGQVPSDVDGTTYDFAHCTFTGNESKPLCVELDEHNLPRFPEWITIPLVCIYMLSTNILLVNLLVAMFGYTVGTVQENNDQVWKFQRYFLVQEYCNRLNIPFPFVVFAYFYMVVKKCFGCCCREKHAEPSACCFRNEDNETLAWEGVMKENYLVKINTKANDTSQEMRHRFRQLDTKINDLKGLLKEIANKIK

Structure (SMILES) | IC50 [1] | inhibition at 0.2 µM [1, 4] [%] | inhibition in vivo at 3 mg/kg [2, 5] [%] | further results
CC(C)c1cc(-c2nc3cc(-c4ccccc4C(F)(F)F)ccc3[nH]2)on1 [Compound 3, 2-(3-Isopropylisoxazol-5-yl)-5-(2-trifluoromethylphenyl)-1H-benzimidazole sodium salt] | 22 nM and 24 nM (2×) and 29 nM | – | – | inhibition in vivo at 30 mg/kg ([2]; rat, dose 30 mg/kg, 1.5 hrs): 48.3%
CC(C)(C)c1cc(-c2nc3cc(-c4ccccc4C(F)(F)F)ccc3[nH]2)on1 [Compound 9, 2-(3-tert-Butylisoxazol-5-yl)-5-(2-trifluoromethylphenyl)-1H-benzimidazole sodium salt] | 17.4 nM and 12 nM | – | – | inhibition in vivo at 10 mg/kg [2, 3]: 66.4%
CCn1nc(C(C)(C)C)cc1-c1nc2cc(-c3ccccc3C(F)(F)F)ccc2[nH]1 [Compound 44, 2-(5-tert-Butyl-2-ethyl-2H-pyrazol-3-yl)-5-(2-trifluoromethylphenyl)-1H-benzimidazole sodium salt] | 15.8 nM | – | – | inhibition in vivo at 10 mg/kg ([2]; Rattus norvegicus, 1.5 h): 30%
Cn1nc(C(C)(C)C)cc1-c1nc2cc(-c3c(F)cccc3F)ccc2[nH]1 [Compound 58, 2-(5-tert-Butyl-2-methyl-2H-pyrazol-3-yl)-5-(2,6-difluoro-phenyl)-1H-benzimidazole trifluoroacetic acid salt] | 14 nM and 17.3 nM | – | – | inhibition in vivo at 5.6 mg/kg ([2]; rat, 1.5 hrs): 11.2%
Cn1nc(C(C)(C)C)cc1-c1nc2cc(-c3c(F)cccc3C(F)(F)F)ccc2[nH]1 [Compound 61, 2-(5-tert-Butyl-2-methyl-2H-pyrazol-3-yl)-5-(2-fluoro-6-trifluoromethylphenyl)-1H-benzimidazole sodium salt] | 7.8 nM and 10 nM | – | – | inhibition in vivo at 10 mg/kg ([2]; Rattus norvegicus, 1.5 h): 38.8%
Cc1c(C(C)(C)C)nn(C)c1-c1nc2cc(-c3ccccc3C(F)(F)F)ccc2[nH]1 [Compound 76, 2-(5-tert-Butyl-2,4-dimethyl-2H-pyrazol-3-yl)-5-(2-trifluoromethylphenyl)-1H-benzimidazole sodium salt] | 6 nM | – | – | inhibition in vivo at 10 mg/kg ([2]; Rattus norvegicus, 1.5 h): 98.6%
Cc1c(C(C)(C)C)nn(C)c1-c1nc2cc(-c3c(F)cccc3C(F)(F)F)ccc2[nH]1 [Compound 78, 2-(5-tert-Butyl-2,4-dimethyl-2H-pyrazol-3-yl)-5-(2-fluoro-6-trifluoromethyl-phenyl)-1H-benzimidazole sodium salt] | 1 nM | – | – | inhibition in vivo at 10 mg/kg ([2]; Rattus norvegicus, 1.5 h): 99.3%
Cc1cc(-c2ccccc2C(F)(F)F)cc2nc(-c3cc(C(C)(C)C)nn3C)[nH]c12 [Compound 79, 2-(5-tert-Butyl-2-methyl-2H-pyrazol-3-yl)-7-methyl-5-(2-trifluoromethylphenyl)-1H-benzimidazole hydrochloride] | 5 nM and 14.4 nM | – | – | inhibition in vivo at 5.6 mg/kg ([2]; rat, 1.5 hrs): 20.1%
Cn1nc(C(C)(C)C)c(Cl)c1-c1nc2cc(-c3c(F)cccc3C(F)(F)F)ccc2[nH]1 [Compound 86, 2-(5-tert-Butyl-4-chloro-2-methyl-2H-pyrazol-3-yl)-5-(2-fluoro-6-trifluoromethyl-phenyl)-1H-benzimidazole hydrochloride] | 3.1 nM and 7.7 nM | – | – | inhibition in vivo at 10 mg/kg [2, 3]: 98.7%
Cn1nc(C(C)(C)C)c(Cl)c1-c1nc2cc(-c3c(F)cccc3C(F)(F)F)cc(Cl)c2[nH]1.[Na] [Compound 113, 2-(5-tert-Butyl-4-chloro-2-methyl-2H-pyrazol-3-yl)-7-chloro-5-(2-fluoro-6-trifluoromethyl-phenyl)-1H-benzimidazole sodium salt] | 2.4 nM and 3.5 nM and 4.4 nM | – | – | % Inh (%) @0.2 μM, in vitro TRP M8 Activity ([1]; sodium salt, 0.2 µM): 100%; inhibition at 0.2 µM [1, 6]: 99%; inhibition in vivo at 3 mg/kg ([2]; Rattus norvegicus, 1.5 h): 2.8%
Cn1nc(C(C)(C)C)c(Cl)c1-c1nc2cc(-c3c(F)cccc3C(F)(F)F)cc(C(F)(F)F)c2[nH]1 [Compound 125, 2-(5-tert-Butyl-4-chloro-2-methyl-2H-pyrazol-3-yl)-5-(2-fluoro-6-trifluoromethyl-phenyl)-7-trifluoromethyl-1H-benzimidazole sodium salt] | 3.2 nM and 1.7 nM | – | – | inhibition at 0.2 µM [1, 6]: 100%; inhibition in vivo at 3 mg/kg ([2]; Rattus norvegicus, 1.5 h): 24.6%

Now from value to compound, other results behind:

IC50 [1] | inhibition at 0.2 µM [1, 4] [%] | Structure (SMILES) | inhibition in vivo at 3 mg/kg [2, 5] [%] | further results
14 nM and 8.2 nM and 2.2 nM | – | Cn1nc(C(C)(C)C)c(Cl)c1-c1nc2cc(-c3ccccc3C(F)(F)F)ccc2[nH]1 [Compound 50, 2-(5-tert-Butyl-4-chloro-2-methyl-2H-pyrazol-3-yl)-5-(2-trifluoromethylphenyl)-1H-benzimidazole sodium salt] | – | inhibition in vivo at 10 mg/kg [2, 3]: 47.4%
3.6 nM and 5.2 nM and 2.4 nM | – | Cn1nc(C(C)(C)C)c(Cl)c1-c1nc2cc(-c3ccccc3Cl)ccc2[nH]1 [Compound 89, 2-(5-tert-Butyl-4-chloro-2-methyl-2H-pyrazol-3-yl)-5-(2-chloro-phenyl)-1H-benzimidazole hydrochloride] | – | inhibition in vivo at 10 mg/kg [2, 3]: 91.5%
5.6 nM and 3.5 nM and 5.9 nM | 99 | Cl.Cn1nc(C(C)(C)C)c(Cl)c1-c1nc2cc(-c3c(F)cccc3F)cc(Cl)c2[nH]1 [Compound 112, 2-(5-tert-Butyl-4-chloro-2-methyl-2H-pyrazol-3-yl)-7-chloro-5-(2,6-difluoro-phenyl)-1H-benzimidazole hydrochloride] | 21.2 | % Inh (%) @0.2 μM, in vitro TRP M8 Activity [1]: 99, 99%
2.2 nM and 5.6 nM and 4.9 nM | 100 | Cn1nc(C(C)(C)C)c(Cl)c1-c1nc2cc(-c3ccccc3Cl)cc(Cl)c2[nH]1.[Na] [Compound 115, 2-(5-tert-Butyl-4-chloro-2-methyl-2H-pyrazol-3-yl)-7-chloro-5-(2-chloro-phenyl)-1H-benzimidazole sodium salt] | 45 | % Inh (%) @0.2 μM, in vitro TRP M8 Activity [1]: 100, 100%
2.6 nM and 5.8 nM and 5.5 nM | 99 | Cl.Cn1nc(C(C)(C)C)c(Cl)c1-c1nc2cc(-c3ccccc3C(F)(F)F)cc(Cl)c2[nH]1 [Compound 116, 2-(5-tert-Butyl-4-chloro-2-methyl-2H-pyrazol-3-yl)-7-chloro-5-(2-trifluoromethyl-phenyl)-1H-benzimidazole hydrochloride] | 47.7 | % Inh (%) @0.2 μM, in vitro TRP M8 Activity ([1]; hydrochloride, 0.2 µM): 100%
7 nM and 11.3 nM and 8.4 nM | 100 | Cl.Cn1nc(C(C)(C)C)c(Cl)c1-c1nc2cc(-c3ccccc3OC(F)(F)F)cc(Cl)c2[nH]1 [Compound 117, 2-(5-tert-Butyl-4-chloro-2-methyl-2H-pyrazol-3-yl)-7-chloro-5-(2-trifluoromethoxy-phenyl)-1H-benzimidazole hydrochloride] | 7.7 | % Inh (%) @0.2 μM, in vitro TRP M8 Activity [1]: 100, 100%
2.1 nM | – | Cc1c(C(C)(C)C)nn(C)c1-c1nc2cc(-c3ccccc3C(F)(F)F)cc(C(F)(F)F)c2[nH]1 [Compound 120, 2-(5-tert-Butyl-2,4-dimethyl-2H-pyrazol-3-yl)-7-trifluoromethyl-5-(2-trifluoromethyl-phenyl)-1H-benzimidazole hydrochloride] | 44.8 | –
10.7 nM and 5.3 nM | 100 | Cn1nc(C(C)(C)C)c(Cl)c1-c1nc2cc(-c3c(F)cccc3OC(F)(F)F)cc(Cl)c2[nH]1 [Compound 130, 2-(5-tert-Butyl-4-chloro-2-methyl-2H-pyrazol-3-yl)-7-chloro-5-(2-fluoro-6-trifluoromethoxy-phenyl)-1H-benzimidazole hydrochloride] | 22.7 | –
12.6 nM and 10.2 nM | 99 | Cc1c(C(C)(C)C)nn(C)c1-c1nc2cc(-c3ccccc3F)cc(Cl)c2[nH]1 [Compound 133, 2-(5-tert-Butyl-2,4-dimethyl-2H-pyrazol-3-yl)-7-chloro-5-(2-fluoro-phenyl)-1H-benzimidazole hydrochloride] | 4.6 | –
8.2 nM and 9 nM | 100 | Cc1c(C(C)(C)C)nn(C)c1-c1nc2cc(-c3c(F)cccc3F)cc(Cl)c2[nH]1 [Compound 136, 2-(5-tert-Butyl-2,4-dimethyl-2H-pyrazol-3-yl)-7-chloro-5-(2,6-difluoro-phenyl)-1H-benzimidazole hydrochloride] | 61.6 | –
8 nM | 100 | Cn1nc(C(C)(C)C)c(C#N)c1-c1nc2cc(-c3ccccc3C(F)(F)F)cc(Cl)c2[nH]1 [Compound 169, 3-tert-Butyl-5-[7-chloro-5-(2-trifluoromethyl-phenyl)-1H-benzimidazol-2-yl]-1-methyl-1H-pyrazole-4-carbonitrile sodium salt] | 34 | –
12.4 nM | 100 | Cn1nc(C(C)(C)C)c(C#N)c1-c1nc2cc(-c3ccccc3OC(F)(F)F)cc(Cl)c2[nH]1 [Compound 170, 3-tert-Butyl-5-[7-chloro-5-(2-trifluoromethoxy-phenyl)-1H-benzimidazol-2-yl]-1-methyl-1H-pyrazole-4-carbonitrile sodium salt] | 4.3 | –
